What was measured:
[1] = molecular target: 5-hydroxytryptamine receptor 2B (Homo sapiens, UniProt P41595); type: cell membranes, CHO-K1, Membrane; details: for Ki: read-out: Ki
[2] = molecular target: T1, Cysteinyl leukotriene receptor 1 (Homo sapiens, UniProt Q9Y271); type: cell membranes, Membrane; details: cho-k1
T1 sequence (Q9Y271 whole entry): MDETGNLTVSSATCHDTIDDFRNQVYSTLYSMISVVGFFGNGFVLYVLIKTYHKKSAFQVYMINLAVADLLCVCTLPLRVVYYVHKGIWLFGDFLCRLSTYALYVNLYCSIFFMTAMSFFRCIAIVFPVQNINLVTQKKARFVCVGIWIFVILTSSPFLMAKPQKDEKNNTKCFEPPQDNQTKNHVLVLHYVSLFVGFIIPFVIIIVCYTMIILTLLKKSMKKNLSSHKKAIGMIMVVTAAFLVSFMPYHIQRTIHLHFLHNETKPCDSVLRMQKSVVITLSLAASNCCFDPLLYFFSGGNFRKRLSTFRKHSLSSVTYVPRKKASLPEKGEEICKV

[3] = molecular target: Delta-type opioid receptor (Homo sapiens, UniProt P41143); type: cell membranes, Membrane; details: hek293
[4] = molecular target: Protein phosphatase 3 catalytic subunit alpha (Homo sapiens, UniProt Q08209); set-up: species or system Escherichia coli;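 note: inhibition of calcineurin (PP2B) enzyme activity, measured with DiFMUP as the substrate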
[5] = molecular target: Tyrosine-protein kinase Fyn (Homo sapiens, UniProt P06241); experiment: biochemical; type: cell-based, Insect cells; details: insect cells;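 note: enzymatic inhibition of Fyn kinase activity measured with Poly(Glu:Tyr) as the phosphorylation substrate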
[6] = molecular target: Receptor tyrosine-protein kinase erbB-2 (Homo sapiens, UniProt P04626); experiment: biochemical; type: cell-based, Insect cells; details: insect cells;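 note: inhibition of HER2 kinase enzyme activity, measured with Poly(Glu:Tyr) as the phosphorylation substrate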
Note: in other assays of this panel Not Active means under 50% inhibition at 10 µM.

Receptor tyrosine-protein kinase erbB-2, sequence (P04626 whole entry): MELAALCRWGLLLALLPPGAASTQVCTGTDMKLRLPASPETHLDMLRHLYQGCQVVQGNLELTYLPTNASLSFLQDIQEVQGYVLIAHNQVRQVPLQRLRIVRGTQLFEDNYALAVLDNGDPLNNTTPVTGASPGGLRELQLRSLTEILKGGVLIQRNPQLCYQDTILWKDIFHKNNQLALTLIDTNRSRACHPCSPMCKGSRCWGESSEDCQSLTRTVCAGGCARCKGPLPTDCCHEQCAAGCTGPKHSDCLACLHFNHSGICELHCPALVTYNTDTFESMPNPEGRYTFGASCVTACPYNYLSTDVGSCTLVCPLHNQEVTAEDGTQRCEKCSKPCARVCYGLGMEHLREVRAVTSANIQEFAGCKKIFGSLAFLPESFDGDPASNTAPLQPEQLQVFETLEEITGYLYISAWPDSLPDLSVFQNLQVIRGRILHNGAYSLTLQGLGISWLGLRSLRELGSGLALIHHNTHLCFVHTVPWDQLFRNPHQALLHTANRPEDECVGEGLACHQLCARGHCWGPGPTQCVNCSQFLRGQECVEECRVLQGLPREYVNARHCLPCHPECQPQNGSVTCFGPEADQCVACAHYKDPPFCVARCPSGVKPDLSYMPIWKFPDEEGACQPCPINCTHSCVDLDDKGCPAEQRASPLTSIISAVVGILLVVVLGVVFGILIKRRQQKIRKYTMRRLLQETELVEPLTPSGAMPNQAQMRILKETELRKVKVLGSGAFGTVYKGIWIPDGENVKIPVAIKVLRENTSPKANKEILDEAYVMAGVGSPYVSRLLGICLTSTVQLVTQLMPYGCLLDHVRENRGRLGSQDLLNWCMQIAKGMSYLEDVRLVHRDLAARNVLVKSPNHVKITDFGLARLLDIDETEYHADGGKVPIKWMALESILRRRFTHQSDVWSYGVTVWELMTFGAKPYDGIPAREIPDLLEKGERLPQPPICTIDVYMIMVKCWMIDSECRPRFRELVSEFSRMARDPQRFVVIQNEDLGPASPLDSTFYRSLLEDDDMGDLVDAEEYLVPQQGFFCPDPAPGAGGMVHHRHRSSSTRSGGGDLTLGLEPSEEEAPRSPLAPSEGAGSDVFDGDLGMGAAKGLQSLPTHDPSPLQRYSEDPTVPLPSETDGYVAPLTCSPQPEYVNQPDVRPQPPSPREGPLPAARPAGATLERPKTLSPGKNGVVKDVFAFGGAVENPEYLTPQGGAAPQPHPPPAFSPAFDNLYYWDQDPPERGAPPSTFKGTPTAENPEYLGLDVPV
Tyrosine-protein kinase Fyn, sequence (P06241 whole entry): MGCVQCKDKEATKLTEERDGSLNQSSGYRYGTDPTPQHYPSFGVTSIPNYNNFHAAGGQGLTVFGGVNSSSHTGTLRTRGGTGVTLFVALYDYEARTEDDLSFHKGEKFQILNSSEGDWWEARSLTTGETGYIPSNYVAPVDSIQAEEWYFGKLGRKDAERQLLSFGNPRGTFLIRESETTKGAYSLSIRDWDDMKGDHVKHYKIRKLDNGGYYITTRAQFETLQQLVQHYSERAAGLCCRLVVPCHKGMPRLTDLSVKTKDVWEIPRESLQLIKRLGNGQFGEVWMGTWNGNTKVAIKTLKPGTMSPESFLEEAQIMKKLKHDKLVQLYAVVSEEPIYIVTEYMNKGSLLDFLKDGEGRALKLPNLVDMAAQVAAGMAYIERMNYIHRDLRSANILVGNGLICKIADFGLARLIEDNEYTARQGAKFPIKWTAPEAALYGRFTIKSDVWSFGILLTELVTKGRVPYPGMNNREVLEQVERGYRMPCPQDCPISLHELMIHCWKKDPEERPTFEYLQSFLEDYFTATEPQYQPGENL
Delta-type opioid receptor, sequence (P41143 whole entry): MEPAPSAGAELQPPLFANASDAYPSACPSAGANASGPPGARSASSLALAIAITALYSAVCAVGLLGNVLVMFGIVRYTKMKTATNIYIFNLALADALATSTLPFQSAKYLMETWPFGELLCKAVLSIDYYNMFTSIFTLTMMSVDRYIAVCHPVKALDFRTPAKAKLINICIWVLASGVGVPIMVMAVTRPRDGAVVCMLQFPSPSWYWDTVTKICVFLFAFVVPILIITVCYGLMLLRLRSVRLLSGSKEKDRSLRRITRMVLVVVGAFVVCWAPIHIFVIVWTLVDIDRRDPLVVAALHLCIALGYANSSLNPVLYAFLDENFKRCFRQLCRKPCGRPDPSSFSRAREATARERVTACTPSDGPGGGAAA
5-hydroxytryptamine receptor 2B, sequence (P41595 whole entry): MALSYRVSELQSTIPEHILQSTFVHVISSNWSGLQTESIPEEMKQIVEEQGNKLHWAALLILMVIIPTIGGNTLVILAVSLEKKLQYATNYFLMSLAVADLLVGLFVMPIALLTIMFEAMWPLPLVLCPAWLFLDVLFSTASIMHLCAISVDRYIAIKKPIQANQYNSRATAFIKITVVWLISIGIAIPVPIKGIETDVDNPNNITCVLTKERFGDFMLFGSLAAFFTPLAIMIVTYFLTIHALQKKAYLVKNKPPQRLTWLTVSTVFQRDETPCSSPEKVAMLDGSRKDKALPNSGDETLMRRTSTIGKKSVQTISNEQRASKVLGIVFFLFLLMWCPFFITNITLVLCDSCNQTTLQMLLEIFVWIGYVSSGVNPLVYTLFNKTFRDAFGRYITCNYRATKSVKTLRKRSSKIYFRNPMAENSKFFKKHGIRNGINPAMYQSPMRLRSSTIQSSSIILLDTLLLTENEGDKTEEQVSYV

| SMILES | IC50 ([1]; cho-k1) | IC50 [2] | IC50 [3] | IC50 [4] | IC50 [5] | IC50 [6] | IC50 ([1]; read-out: IC50) [µM] | Ki [1] [µM] |
| --- | --- | --- | --- | --- | --- | --- | --- | --- |
| C[C@H]1O[C@@H](n2cc(F)c(=O)[nH]c2=O)[C@H](O)[C@@H]1O [DOXIFLURIDINE] | Not Active | Not Active | Not Active | Not Active | Not Active | Not Active | – | – |
| Cn1c(=O)c2c(ncn2CC(O)CO)n(C)c1=O (stereo not drawn) [DYPHYLLINE] | Not Active | Not Active | Not Active | Not Active | Not Active | Not Active | – | – |
| CC[C@H]1CN2CCc3cc(OC)c(OC)cc3[C@@H]2C[C@@H]1C[C@H]1NCCc2cc(OC)c(OC)cc21 [EMETINE] | Not Active | Not Active | Not Active | Not Active | Not Active | Not Active | – | – |
| C[C@@H](CO)NC(=O)[C@@H]1C=C2c3cccc4[nH]cc(c34)C[C@H]2N(C)C1 [ERGONOVINE] | – | Not Active | Not Active | Not Active | Not Active | Not Active | 0.00414 | 0.00263 |
| COC(=O)CCc1ccc(OCC(O)CNC(C)C)cc1 (stereo not drawn) [ESMOLOL] | Not Active | Not Active | Not Active | Not Active | Not Active | Not Active | – | – |
| CCC1(C)CC(=O)NC1=O (stereo not drawn) [ETHOSUXIMIDE] | Not Active | Not Active | Not Active | Not Active | Not Active | Not Active | – | – |
| C#C[C@]1(OC(C)=O)CC[C@H]2[C@@H]3CCC4=C[C@@H](OC(C)=O)CC[C@@H]4[C@H]3CC[C@@]21C [ETHYNODIOL DIACETATE] | Not Active | Not Active | Not Active | Not Active | Not Active | Not Active | – | – |
| COc1cc([C@@H]2c3cc4c(cc3[C@@H](O[C@@H]3O[C@@H]5CO[C@@H](C)O[C@H]5[C@H](O)[C@H]3O)[C@H]3COC(=O)[C@H]23)OCO4)cc(OC)c1O [ETOPOSIDE] | Not Active | Not Active | Not Active | Not Active | Not Active | Not Active | – | – |
| C=CCc1ccc(O)c(OC)c1 [EUGENOL] | Not Active | Not Active | Not Active | Not Active | Not Active | Not Active | – | – |
| CC(C(=O)O)c1cccc(Oc2ccccc2)c1 (stereo not drawn) [FENOPROFEN] | Not Active | Not Active | Not Active | Not Active | Not Active | Not Active | – | – |
| CC(C)(C)NC(=O)[C@H]1CC[C@H]2[C@@H]3CC[C@H]4NC(=O)C=C[C@]4(C)[C@H]3CC[C@]12C [FINASTERIDE] | Not Active | Not Active | Not Active | Not Active | Not Active | Not Active | – | – |
| COc1ccc2c3c1O[C@H]1C[C@@H](O)C=C[C@@]31CCN(C)C2 [GALANTAMINE] | Not Active | Not Active | Not Active | Not Active | Not Active | Not Active | – | – |
| Nc1ccn([C@@H]2O[C@H](CO)[C@@H](O)C2(F)F)c(=O)n1 [GEMCITABINE] | Not Active | Not Active | Not Active | Not Active | Not Active | Not Active | – | – |
| CC(C)=CCC/C(C)=C/CO [GERANIOL] | Not Active | Not Active | Not Active | Not Active | Not Active | Not Active | – | – |
| N=C(N)NC(=O)Cc1c(Cl)cccc1Cl [GUANFACINE] | – | Not Active | Not Active | Not Active | Not Active | Not Active | 2.1 | 1.34 |
| NNc1nncc2ccccc12 [HYDRALAZINE] | Not Active | Not Active | Not Active | Not Active | Not Active | Not Active | – | – |
| CC(=O)[C@@]1(O)CC[C@H]2[C@@H]3CCC4=CC(=O)CC[C@]4(C)[C@H]3CC[C@@]21C [HYDROXYPROGESTERONE] | Not Active | Not Active | Not Active | Not Active | Not Active | Not Active | – | – |
| COC1=C(OC)C(=O)C(CCCCCCCCCCO)=C(C)C1=O [IDEBENONE] | Not Active | Not Active | Not Active | Not Active | Not Active | Not Active | – | – |
| CC(C)NNC(=O)c1ccncc1 [IPRONIAZID] | Not Active | Not Active | Not Active | Not Active | Not Active | Not Active | – | – |

| SMILES | IC50 ([1]; cho-k1) | IC50 [2] | IC50 [3] | IC50 [4] | IC50 [5] | IC50 [6] | IC50 ([1]; read-out: IC50) [µM] | Ki [1] [µM] |
| --- | --- | --- | --- | --- | --- | --- | --- | --- |
| Cc1c(OCC(F)(F)F)ccnc1C[S+]([O-])c1nc2ccccc2[nH]1 (stereo not drawn) [LANSOPRAZOLE] | Not Active | Not Active | Not Active | Not Active | Not Active | Not Active | – | – |
| O=c1cc(N2CCOCC2)oc2c(-c3ccccc3)cccc12 [LY-294002] | – | Not Active | Not Active | Not Active | Not Active | Not Active | 36.7 | 23.4 |
| COc1ccc2[nH]cc(CCNC(C)=O)c2c1 [MELATONIN] | Not Active | Not Active | Not Active | Not Active | Not Active | Not Active | – | – |
| NC(=O)C[S+]([O-])C(c1ccccc1)c1ccccc1 (stereo not drawn) [MODAFINIL] | Not Active | Not Active | Not Active | Not Active | Not Active | Not Active | – | – |
| CCN(CC)CCOCCC1=CCC2CC1C2(C)C (stereo not drawn) [MYRTECAINE] | Not Active | Not Active | Not Active | Not Active | Not Active | Not Active | – | – |
| O=C(O)c1cccnc1Nc1cccc(C(F)(F)F)c1 [NIFLUMIC ACID] | Not Active | Not Active | Not Active | Not Active | Not Active | Not Active | – | – |
| O=C(N/N=C/c1ccc([N+](=O)[O-])o1)c1cc([N+](=O)[O-])cc([N+](=O)[O-])c1O [NIFURSOL] | Not Active | Not Active | Not Active | Not Active | Not Active | Not Active | – | – |
| COC(=O)Nc1nc2ccc(C(=O)c3cccs3)cc2[nH]1 [NOCODAZOLE] | – | Not Active | Not Active | Not Active | Not Active | Not Active | 20.2 | 12.8 |
| C#CC1(O)CC[C@H]2[C@@H]3CCC4=CC(=O)CC[C@@H]4[C@H]3CC[C@@]21CC (stereo partly drawn) [NORGESTREL] | Not Active | Not Active | Not Active | Not Active | Not Active | Not Active | – | – |
| COC(=O)Nc1nc2ccc([S+]([O-])c3ccccc3)cc2[nH]1 (stereo not drawn) [OXFENDAZOLE] | Not Active | Not Active | Not Active | Not Active | Not Active | Not Active | – | – |
| C[n+]1ccc(-c2cc[n+](C)cc2)cc1.[Cl-].[Cl-] [PARAQUAT DICHLORIDE] | Not Active | Not Active | Not Active | Not Active | Not Active | Not Active | – | – |
| CC(C)NCC(O)COc1cccc2[nH]ccc12 (stereo not drawn) [PINDOLOL] | Not Active | Not Active | Not Active | Not Active | Not Active | Not Active | – | – |
| CCn1cc(C(=O)O)c(=O)c2cnc(N3CCCC3)nc21 [PIROMIDIC ACID] | Not Active | Not Active | Not Active | Not Active | Not Active | Not Active | – | – |
| C[n+]1ccccc1/C=N/O.[Cl-] [PRALIDOXIME CHLORIDE] | Not Active | Not Active | Not Active | Not Active | Not Active | Not Active | – | – |
| COc1cc2nc(N3CCN(C(=O)c4ccco4)CC3)nc(N)c2cc1OC [PRAZOSIN] | – | Not Active | Not Active | Not Active | Not Active | Not Active | 4.12 | 2.62 |
| C[C@]12C=CC(=O)C=C1CC[C@@H]1[C@@H]2[C@@H](O)C[C@@]2(C)[C@H]1CC[C@]2(O)C(=O)CO [PREDNISOLONE] | Not Active | Not Active | Not Active | Not Active | Not Active | Not Active | – | – |
| CC(=O)[C@H]1[C@H](C#N)C[C@H]2[C@@H]3CC=C4C[C@@H](O)CC[C@]4(C)[C@H]3CC[C@@]21C [PREGNENOLONE CARBONITRILE] | Not Active | Not Active | Not Active | Not Active | Not Active | Not Active | – | – |
| CCCN(CCC)S(=O)(=O)c1ccc(C(=O)O)cc1 [PROBENECID] | Not Active | Not Active | Not Active | Not Active | Not Active | Not Active | – | – |
| CCCOc1ccc(C(=O)OCCN(CC)CC)cc1N [PROPARACAINE] | Not Active | Not Active | Not Active | Not Active | Not Active | Not Active | – | – |

From ChEMBL document CHEMBL1909046, “DrugMatrix in vitro pharmacology data”
